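Cultured in 96-well plates, cells were exposed to test compound for 48 hours across five concentrations. Here, GI50 denotes the concentration required for 50% inhibition of growth.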 The source made the active and inactive calls. No stated cut-off is given here; in the data, active = GI50 up to about 1.1 µM and inactive = higher.
Experiments:
Assay in all cases: NCI tumour cell line growth inhibition, 48 h
NCI-H226 = tested on: NCI-H226
SNB-19 = tested on: SNB-19
HOP-92 = tested on: HOP-92
MCF7 = tested on: MCF7
HCC 2998 = tested on: HCC 2998
SF-295 = tested on: SF-295
A498 = tested on: A498
UO-31 = tested on: UO-31
CAKI-1 = tested on: CAKI-1
Malme-3M = tested on: Malme-3M
MDA-MB-435 = tested on: MDA-MB-435
MOLT-4 = tested on: MOLT-4
OVCAR-4 = tested on: OVCAR-4
ACHN = tested on: ACHN
NCI-H23 = tested on: NCI-H23
EKVX = tested on: EKVX
PC-3 = tested on: PC-3
SK-MEL-28 = tested on: SK-MEL-28
HL-60 = tested on: HL-60
RXF 393 = tested on: RXF 393

Measured: GI50

CC(=O)c1c2c(cc3c1CC1(Cc4cc5c(cc4C1)C(=O)CCC5)C3)CCCC2 (configuration not stated)
active: A498 0.822 µM
inactive: NCI-H226 3.5 µM | SNB-19 13.8 µM | HOP-92 2.55 µM | MCF7 4.49 µM | HCC 2998 12.5 µM | SF-295 8.24 µM | UO-31 9.4 µM | CAKI-1 7.73 µM | Malme-3M 6.64 µM | MDA-MB-435 2.94 µM | MOLT-4 2.59 µM | OVCAR-4 5.83 µM | ACHN 2.97 µM | NCI-H23 6.12 µM | EKVX > 23.8 µM | PC-3 5.53 µM | SK-MEL-28 7.38 µM | HL-60 1.82 µM

CC(=O)O[C@H]1C[C@H]2[C@@H](OC(C)=O)/C=C3\C[C@](C)(C(=O)[C@H](O)C(=C1C)C2(C)C)[C@@H](O)C[C@@H]3OC(=O)[C@H](O)[C@H](c1ccccc1)N(C)C
inactive: NCI-H226 > 100 µM | SNB-19 > 100 µM | HOP-92 > 100 µM | MCF7 > 100 µM | RXF 393 > 100 µM | SF-295 > 100 µM | A498 > 100 µM | UO-31 > 100 µM | CAKI-1 > 100 µM | Malme-3M > 100 µM | MDA-MB-435 > 100 µM | MOLT-4 > 100 µM | OVCAR-4 > 100 µM | ACHN > 100 µM | NCI-H23 > 100 µM | EKVX > 100 µM | PC-3 > 100 µM | SK-MEL-28 > 100 µM | HL-60 > 100 µM

COC(=O)[C@H](Cc1ccccc1)NC(=O)N(CCNC(=O)OC(C)(C)C)c1ccccc1
inactive: NCI-H226 > 100 µM | SNB-19 > 100 µM | MCF7 > 100 µM | HCC 2998 > 100 µM | RXF 393 87.1 µM | SF-295 > 100 µM | A498 > 100 µM | UO-31 > 100 µM | CAKI-1 > 100 µM | Malme-3M > 100 µM | MDA-MB-435 > 100 µM | MOLT-4 > 100 µM | OVCAR-4 > 100 µM | ACHN > 100 µM | NCI-H23 > 100 µM | EKVX > 100 µM | PC-3 > 100 µM | SK-MEL-28 > 100 µM | HL-60 > 100 µM

COc1ccc(-c2cc(-c3ccccc3)n(C3OC(COC(C)=O)C(OC(C)=O)C(OC(C)=O)C3OC(C)=O)c(=S)c2C#N)cc1 (configuration not stated)
inactive: NCI-H226 5.87 µM | SNB-19 11.1 µM | HOP-92 4.39 µM | MCF7 25.4 µM | HCC 2998 22.3 µM | RXF 393 11.2 µM | SF-295 5.47 µM | UO-31 9.08 µM | CAKI-1 6.52 µM | Malme-3M 5.87 µM | MDA-MB-435 6.89 µM | MOLT-4 17.9 µM | OVCAR-4 2.6 µM | ACHN 15.2 µM | NCI-H23 19.3 µM | EKVX 14.9 µM | PC-3 12.4 µM | SK-MEL-28 12.6 µM | HL-60 2.61 µM

O=C(Nn1c(-c2ccccc2)nc2ccccc2c1=O)c1ccc(CS)cc1
inactive: NCI-H226 37.7 µM | SNB-19 > 100 µM | HOP-92 34.9 µM | MCF7 29.8 µM | HCC 2998 > 100 µM | RXF 393 44.7 µM | SF-295 > 100 µM | A498 24.5 µM | UO-31 46.3 µM | Malme-3M 36.6 µM | MDA-MB-435 41.8 µM | MOLT-4 16.6 µM | OVCAR-4 98.4 µM | ACHN 54.5 µM | NCI-H23 49.9 µM | EKVX 36.7 µM | PC-3 20.2 µM | SK-MEL-28 69.8 µM | HL-60 16 µM

COc1cc2c(c(O)c1OC)CC1CCC(=O)N1C2c1cccc2ccccc12 (configuration not stated)
active: HL-60 0.813 µM
inactive: SNB-19 15.6 µM | HOP-92 14.1 µM | MCF7 30.9 µM | HCC 2998 16 µM | SF-295 18.6 µM | A498 18.5 µM | UO-31 17.6 µM | CAKI-1 19.5 µM | Malme-3M 21.8 µM | MDA-MB-435 19.2 µM | MOLT-4 26.1 µM | OVCAR-4 > 10 µM | ACHN 29.3 µM | NCI-H23 24 µM | EKVX 22.3 µM | PC-3 15.6 µM | SK-MEL-28 21.9 µM

C=C1CC(COc2ccc3c(C)c(C)c(=O)oc3c2C)(c2ccccc2)OC1=O (configuration not stated)
active: MOLT-4 1.11 µM | HL-60 0.711 µM
inactive: NCI-H226 2.27 µM | SNB-19 13.5 µM | HOP-92 1.45 µM | MCF7 1.42 µM | HCC 2998 2.48 µM | SF-295 5.66 µM | A498 2.7 µM | UO-31 2.77 µM | CAKI-1 1.5 µM | Malme-3M 1.62 µM | MDA-MB-435 2.7 µM | OVCAR-4 2.32 µM | ACHN 3.51 µM | NCI-H23 2.04 µM | EKVX 7.55 µM | PC-3 1.73 µM | SK-MEL-28 2.07 µM

CCOC(=O)c1sc2nc1CSc1sc(=S)sc1SCc1nc(sc1C(=O)OCC)-c1nc(c(C(=O)OCC)s1)CSc1sc(=S)sc1SCc1nc-2sc1C(=O)OCC
inactive: SNB-19 > 10 µM | HOP-92 > 10 µM | MCF7 > 10 µM | HCC 2998 > 10 µM | RXF 393 > 10 µM | SF-295 > 10 µM | UO-31 > 10 µM | CAKI-1 > 10 µM | Malme-3M > 10 µM | MDA-MB-435 > 10 µM | MOLT-4 > 10 µM | OVCAR-4 > 10 µM | ACHN > 10 µM | NCI-H23 > 10 µM | EKVX > 10 µM | PC-3 > 10 µM | SK-MEL-28 > 10 µM | HL-60 > 10 µM

COc1ccc(S(=O)(=O)O)cc1NS(=O)(=O)c1ccc(C)cc1
inactive: NCI-H226 > 100 µM | SNB-19 > 100 µM | MCF7 > 100 µM | SF-295 > 100 µM | A498 > 100 µM | UO-31 > 100 µM | CAKI-1 > 100 µM | MDA-MB-435 > 100 µM | MOLT-4 > 100 µM | OVCAR-4 > 100 µM | ACHN > 100 µM | NCI-H23 > 100 µM | EKVX > 100 µM | PC-3 > 100 µM | SK-MEL-28 > 100 µM | HL-60 > 100 µM

CC1CC/C(=C\c2ccc(N(C)C)cc2)C2=C1C(c1ccc(N(C)C)cc1)NC(=S)N2 (configuration not stated)
inactive: NCI-H226 > 100 µM | SNB-19 > 100 µM | MCF7 > 100 µM | RXF 393 > 100 µM | SF-295 > 100 µM | A498 > 100 µM | UO-31 > 100 µM | CAKI-1 > 100 µM | Malme-3M > 100 µM | MDA-MB-435 > 100 µM | MOLT-4 > 100 µM | ACHN > 100 µM | NCI-H23 > 100 µM | EKVX > 100 µM | PC-3 40.3 µM | SK-MEL-28 > 100 µM | HL-60 > 100 µM

O=[N+]([O-])c1ccc2nc(Cl)n[n+]([O-])c2c1
inactive: NCI-H226 19.6 µM | SNB-19 25.5 µM | MCF7 5.52 µM | HCC 2998 16.3 µM | RXF 393 15.1 µM | SF-295 22.7 µM | UO-31 17 µM | CAKI-1 16 µM | Malme-3M 15.9 µM | MDA-MB-435 13.8 µM | MOLT-4 1.15 µM | OVCAR-4 12.2 µM | ACHN 14 µM | NCI-H23 15.3 µM | EKVX 18.5 µM | PC-3 13 µM | SK-MEL-28 18.3 µM
active: A498 0.65 µM | HL-60 0.668 µM

C/C(=N\O)c1ccc(Nc2nc3ccccc3c3occc23)cc1
inactive: NCI-H226 2.33 µM | SNB-19 16.1 µM | HOP-92 6.78 µM | MCF7 3.42 µM | HCC 2998 4.1 µM | SF-295 3.4 µM | A498 8.41 µM | UO-31 15.9 µM | CAKI-1 3.15 µM | Malme-3M 19.9 µM | MDA-MB-435 6.58 µM | MOLT-4 3 µM | ACHN 9.82 µM | NCI-H23 15.6 µM | EKVX 21.7 µM | PC-3 10.6 µM | HL-60 2.29 µM

CCOC(=O)CO/N=C\C1=CC(=O)C2CC1C2(C)C (configuration not stated)
inactive: NCI-H226 > 100 µM | SNB-19 > 100 µM | MCF7 > 100 µM | RXF 393 > 100 µM | SF-295 > 100 µM | A498 > 100 µM | UO-31 > 100 µM | CAKI-1 > 100 µM | Malme-3M > 100 µM | MDA-MB-435 > 100 µM | MOLT-4 > 100 µM | ACHN > 100 µM | NCI-H23 > 100 µM | EKVX > 100 µM | PC-3 > 100 µM | SK-MEL-28 > 100 µM | HL-60 > 100 µM

O=C1/C(=C/c2ccccc2)Oc2cc(O)ccc21
inactive: NCI-H226 > 100 µM | SNB-19 > 100 µM | MCF7 > 100 µM | HCC 2998 > 100 µM | RXF 393 > 100 µM | SF-295 > 100 µM | UO-31 > 100 µM | CAKI-1 > 100 µM | MDA-MB-435 > 100 µM | MOLT-4 > 100 µM | OVCAR-4 > 100 µM | ACHN > 100 µM | NCI-H23 > 100 µM | EKVX > 100 µM | PC-3 > 100 µM | SK-MEL-28 > 100 µM | HL-60 > 100 µM

OCC12C3C4C5C3C1C5C42 (configuration not stated)
inactive: NCI-H226 > 100 µM | SNB-19 > 100 µM | HOP-92 > 100 µM | MCF7 > 100 µM | RXF 393 > 100 µM | SF-295 > 100 µM | A498 > 100 µM | UO-31 > 100 µM | CAKI-1 > 100 µM | Malme-3M > 100 µM | MDA-MB-435 > 100 µM | MOLT-4 > 100 µM | OVCAR-4 > 100 µM | ACHN > 100 µM | NCI-H23 > 100 µM | EKVX > 100 µM | PC-3 > 100 µM | SK-MEL-28 > 100 µM | HL-60 > 100 µM

Reference: ChEMBL document CHEMBL1201862, “PubChem BioAssay data set” (2004)
